Values quoted from earlier work, collected in patent US20200308169A1, “HETEROCYCLIC COMPOUNDS AS ANTIBACTERIALS” (JANSSEN SCIENCES IRELAND UNLIMITED COMPANY, priority 2016, published 2020).
In brackets after ≈: the same amount, converted by molar mass.

Assays:
[1] = system: replicating and non-replicating bacteria; conditions: both replicating and non-replicating bacteria
[2] = system: M. tuberculosis H37Rv; conditions: strain H37Rv, inside macrophages

CCc1nc2ccc(Cl)cn2c1C(=O)NCc1ccc(N2CCC(c3ccc(OC(F)(F)F)cc3)CC2)cc1 [Q203]
activity against replicating and non-replicating bacteria [1]: highly active
MIC50 [2]: 0.28 nM (≈ 0.156 ng/mL)
